Test results: patent publication US20230242551A1, “ISOTOPE-SUBSTITUTED SPIRO AROMATIC RING COMPOUND AND APPLICATION THEREOF” (ETERN BIOPHARMA (SHANGHAI) CO., LTD., priority 2020, published 2023)

How the values were obtained:
[1] = Liver microsomal metabolic stability test (human); format: in vitro ADME; settings: NADPH, 37° C.; for half-life at 1 µM / microsomal CLint at 1 µM: pH 7.4; for half-life at 1 µM: read-out: Human hepatic microsomal metabolic half-life; for microsomal CLint at 1 µM: read-out: Intrinsic clearance of human hepatic microsomes in body
Procedure: (§1) 1) Preparation of stock and working solutions of the compound: An appropriate amount of the compound was weighed and dissolved in DMSO to give a 10 mM stock solution, and the stock solution was further diluted with ACN to give a 100 µM working solution.
Each positive control standard was dissolved separately with DMSO to obtain a 10 mM stock solution and further diluted with ACN to obtain a 100 µM working solution.
(§2) 73.21 g of dipotassium hydrogen phosphate trihydrate and 10.78 g of potassium dihydrogen phosphate were dissolved in 4000 mL of ultrapure water. The pH of the solution was adjusted to 7.40 ± 0.10 with 10% phosphoric acid or 1 M potassium hydroxide and the final concentration was 100 mM.
Human liver microsomes (20 mg/mL) were diluted with the phosphate buffer solution to obtain 0.56 mg/mL of a liver microsomal working solution.
(§3) NADPH was weighed and dissolved in the phosphate buffer solution to obtain a 10 mM solution.
1) Preparation of Blank: 54 µL of human liver microsomal working solution was transferred to a blank sample plate, then added with 6 µL of NADPH working solution, and finally added with 180 µL of ACN solution containing 200 ng/mL of tolbutamide and labetalol (internal standard) to precipitate the protein.
445 µL of human liver microsomal working solution (MWS) was added to the cofactor-free incubation sample plate, pre-incubated at 37° C. for 10 min, and then fully mixed after the addition of 5 µL of working solution of positive control or the compound to be tested.
50 µL of phosphate buffer solution was added to the above incubation sample plate, fully mixed and incubated at 37° C. for 60 min.
After the incubation is complete, 60 µL of incubation solution was taken into a pellet plate, and then added with 180 µL of ACN solution containing 200 ng/mL of tolbutamide and labetalol (internal standard) to precipitate the protein.
(§4) 445 µL of human/rat liver microsomal working solution (MWS) was added to the incubation sample plate, pre-incubated at 37° C. for 10 min, and then fully mixed after the addition of 5 µL of working solution of positive control or the compound to be tested.
(§5) 54 µL of the above intermediate working solution was transferred to the zero-time sample plate (T0), then added with 180 µL of ACN solution containing 200 ng/mL tolubutamide and labetalol (internal standard) to precipitate the protein, and finally added with 6 µL of NADPH working solution.
(§6) 44 µL of NADPH working solution was added to 396 µL of microsomal working solution containing positive control or the compound to be tested (remaining solution after the operation of steps (1) and (2)) and incubated at 37° C. At the time points of 5, 15, 30, 45, and 60 min, 60 uL of incubation solution was taken and added to 180 µL of ACN solution containing 200 ng/mL of tolubutamide and labetalol (internal standard) to precipitate the protein.
(§7) Centrifuged collected supernatants were analyzed with LC-MS/MS after appropriate dilution.
(§8) The peak area ratio of the analyte to the internal standard was used to calculate the relative percentage content of the compound after incubation and to perform exponential function fitting. The calculation formula was as follows: […]
(§9) wherein k was the rate constant obtained by linear regression taking the concentration logarithm as the ordinate and the incubation time as the absciss.
(§10) wherein CLint was the Intrinsic clearance.

[2] = Liver microsomal metabolic stability test (rat); format: in vitro ADME; settings: NADPH, 37° C.
Procedure: as §1, §2, §3, §4, §5, §6, §7, §8, §9, §10

[3] = human liver microsomes, 0-60 min

| half-life at 1 µM [1, 3] [h] | microsomal CLint at 1 µM ([1]; human liver microsomes) [µL/min/mg] | half-life at 1 µM ([2]; pH 7.4, rat liver microsomes, 0-60 min, read-out: Rat hepatic microsomal metabolic half-life) [h] | microsomal CLint at 1 µM ([2]; pH 7.4, rat liver microsomes, read-out: Intrinsic clearance of rat hepatic microsomes in body) [µL/min/mg] | SMILES | Intrinsic clearance of human hepatic microsomes in body [1] [µL/min/mg] | Human hepatic microsomal metabolic half-life [1, 3] [h] | Intrinsic clearance of rat hepatic microsomes in body [2] [µL/min/mg] | Rat hepatic microsomal metabolic half-life ([2]; rat liver microsomes, 0-60 min) [h] |
| --- | --- | --- | --- | --- | --- | --- | --- | --- |
|  |  |  |  | Nc1nccc(Sc2cnc(N3CCC4(CC3)Cc3ncccc3[C@H]4N)n3ccnc23)c1Cl [Compound 1] | 26 | 0.9 | 19 | 1.17 |
| 1.2 | 19 | 2.03 | 11.4 | [2H][C@@]1(N)c2cccnc2CC12CCN(c1ncc(Sc3ccnc(N)c3Cl)c3nccn13)CC2 [Compound 10] |  |  |  |  |
| 1.28 | 18 |  |  | [2H]C1([2H])c2ncccc2[C@@]([2H])(N)C12CCN(c1ncc(Sc3ccnc(N)c3Cl)c3nccn13)CC2 [Compound 12] |  |  |  |  |
